Reference: ChEMBL document CHEMBL1142574, “Identification of radical scavenging compounds in Rhaponticum carthamoides by means of LC-DAD-SPE-NMR” (J Nat Prod, 2005)

Assays:
[1] = test system: Radical scavenging activity; experiment: Antioxidant activity assessed as DPPH radical scavenging activity studied at DPPH to compound ratio of 2; assay type: functional; conditions: dose or concentration not given here
[2] = test system: Radical scavenging activity; experiment: Antioxidant activity assessed as DPPH radical scavenging activity studied at DPPH to compound ratio of 5; assay type: functional; conditions: dose or concentration not given here

SMILES | inhibition [1] | inhibition [2]
O=C(/C=C/c1ccc(O)c(O)c1)O[C@H](Cc1ccc(O)c(O)c1)C(=O)O | 98% | 89%
Cc1c(C)c2c(c(C)c1O)CCC(C)(C(=O)O)O2 (stereo unspecified) | 98% | 79%
CC(=O)OC[C@H]1O[C@@H](Oc2cc3oc(-c4ccc(O)cc4)c(O)c(=O)c3c(O)c2O)[C@H](O)[C@@H](O)[C@@H]1O | 75% | 36%
